In patent US8486374B2, “Hydrophilic, non-aqueous pharmaceutical carriers and compositions and uses” (Foamix Ltd., priority 2004, dated 2013):

Key:
[1] = anti-inflammatory steroids at typical concentration in topical products (triamcinolone acetonide 0.025%-0.1% medium, 0.5% high); cited from earlier work
[2] = Shakability of the composition; type: physicochemical
From the text: ‘Shakability’ means that the composition contains some or sufficient flow to allow the composition to be mixed or remixed on shaking. That is, it has fluid or semi fluid properties. A breakable foam is that is thermally stable, yet breaks under sheer force.
‘Shakability’ means that the composition contains some or sufficient flow to allow the composition to be mixed or remixed on shaking. That is, it has fluid or semi fluid properties. In some very limited cases it may still be possible to have a foamable composition which is flowable but not apparently shakable.

[3] = Foam appearance (color, odor, form); type: physicochemical; parameters: key to ODOR: No odor (N.O.); key to COLOR: white (W)
[4] = Predicted physical characteristics of the resultant foam after adding an active agent; type: physicochemical; conditions: predicted on adding the active (BMV […] w/w; estradiol hemihydrate about 0.0051% w/w) with modulating agent to the carrier of the example at the place
[5] = Chemical stability: amount of active agent in foam by HPLC on storage; type: physicochemical; conditions: 4 weeks
Description: The amount of active agent present is analyzed in foam expelled from various pressurized canisters containing foam formulations using HPLC. Analysis is carried out at zero time and at appropriate time intervals thereafter. The canisters are stored in controlled temperature incubators at 5° C., at 25° C., at, 40° C. and at 50° C. At appropriate time intervals canisters are removed and the amount of active agent in the foam sample is measured. […] All samples were stored at 50° C. for 4 weeks, in order to assess their stability. The following table provides the results of this short-term stability study, which indicated high compatibility between the polyol composition and the steroid drugs, which are known to be temperature-sensitive.

[6] = active agent in stock of PEG-400 97.5, hydroxypropyl cellulose 0.5, steareth 2 2.0 (first Example 29)
[7] = active agent in stock of propylene glycol 46, glycerin 33, dimethyl isosorbide 15, stearyl alcohol, hydroxypropyl cellulose, laureth-4, GMS/PEG 100 stearate (Example 30)
[8] = active agent in stock of propylene glycol 91, stearyl alcohol 2, Klucel EF 2, laureth-4 2, glyceryl monostearate/PEG 100 stearate 3 (second Example 29)

Row | SMILES | Relative Potency [1] | SHAKABILITY [2, 6] | SHAKABILITY [2, 7] | SHAKABILITY [2, 8] | COLOR [3, 6] | ODOR [3, 6] | COLOR [3, 7] | ODOR [3, 7] | COLOR [3, 8] | ODOR [3, 8] | effect on the physical characteristics of the resultant foam [4] | % Degradation after 4 weeks at 50° C. [5] [%]
1 | CCC(=O)OCC(=O)[C@@]1(OC(=O)CC)[C@H](C)C[C@H]2[C@H]3[C@H]([C@@H](O)C[C@@]21C)[C@@]1(C)C=CC(=O)C=C1C[C@H]3Cl [Alcometasone dipropionate] | Medium Potency |  |  |  |  |  |  |  |  |  |  | 
2 | O=C(O)CCCCCCCC(=O)O [Azelaic acid] |  | Yes | Yes | Yes | W | N.O | W | N.O | W | N.O |  | 
3 | O=C(OOC(=O)c1ccccc1)c1ccccc1 [Benzoyl peroxide] |  | Yes | Yes | Yes | W | N.O | W | N.O | W | N.O |  | 
4 | CCCCC(=O)O[C@]1(C(=O)CO)[C@@H](C)C[C@H]2[C@@H]3CCC4=CC(=O)C=C[C@]4(C)[C@@]3(F)[C@@H](O)C[C@@]21C [Betamethasone 17 valerate micronized, Betamethasone 17 valerate] | Medium Potency | Yes | Yes | Yes | W | N.O | W | N.O | W | N.O | minimal effect | 
5 | C[C@H]1C[C@H]2[C@@H]3CCC4=CC(=O)C=C[C@]4(C)[C@@]3(F)[C@@H](O)C[C@]2(C)[C@@]1(OC(=O)c1ccccc1)C(=O)CO [Betamethasone-17-benzoate] | High Potency |  |  |  |  |  |  |  |  |  |  | 
6 | CCC(=O)OCC(=O)[C@@]1(OC(=O)CC)[C@@H](C)C[C@H]2[C@@H]3CCC4=CC(=O)C=C[C@]4(C)[C@@]3(F)[C@@H](O)C[C@@]21C [Bethamethasone Dipropionate] | High Potency |  |  |  |  |  |  |  |  |  |  | 0
7 | Cn1c(=O)c2c(ncn2C)n(C)c1=O [Caffeine] |  | Yes | Yes | Yes | W | N.O | W | N.O | W | N.O |  | 
8 | C=C1/C(=C\C=C2/CCC[C@]3(C)[C@@H]([C@H](C)/C=C/[C@@H](O)C4CC4)CC[C@@H]23)C[C@@H](O)C[C@@H]1O [Calcipotriol hydrate] |  | Yes | Yes | Yes | W | N.O | W | N.O | W | N.O |  | 
9 | Cc1cc(C2CCCCC2)n(O)c(=O)c1 [Ciclopiroxolamine] |  | Yes | Yes | Yes | W | N.O | W | N.O | W | N.O |  | 
10 | CCC(=O)O[C@]1(C(=O)CCl)[C@@H](C)C[C@H]2[C@@H]3CCC4=CC(=O)C=C[C@]4(C)[C@@]3(F)[C@@H](O)C[C@@]21C [Clobetasol Propionate] | Highest Potency |  |  |  |  |  |  |  |  |  |  | 
11 | CCCC(=O)O[C@]1(C(=O)CCl)[C@H](C)C[C@@H]2[C@@H]3CCC4=CC(=O)C=C[C@]4(C)[C@]3(F)C(=O)C[C@@]21C [Clobetasone-17-butyrate] | Medium Potency |  |  |  |  |  |  |  |  |  |  | 
12 | CC1(C)O[C@@H]2C[C@H]3[C@@H]4CCC5=CC(=O)C=C[C@]5(C)[C@H]4[C@@H](O)C[C@]3(C)[C@]2(C(=O)CO)O1 [Desonide] | Low Potency |  |  |  |  |  |  |  |  |  |  | 
13 | C[C@]12CC[C@@H]3c4ccc(O)cc4CC[C@H]3[C@@H]1CC[C@@H]2O [Estradiol hemihydrate] |  |  |  |  |  |  |  |  |  |  | minimal effect | 
14 | CC(=O)OCC(=O)[C@@]12OC(C)(C)O[C@@H]1C[C@H]1[C@@H]3C[C@H](F)C4=CC(=O)C=C[C@]4(C)[C@@]3(F)[C@@H](O)C[C@@]12C [Flucinonide] | Medium Potency |  |  |  |  |  |  |  |  |  |  | 
